Experimental data from US7098195B2, “Fluorinated glucosamine analogs useful for modulating post-translational glycosylations on cells” (Health Research, Inc., priority 2001, dated 2006).

Assays:
[1] = tested on: panel of human tumor cell lines as well as normal endothelial cells; experiment: Growth inhibition (IC50) of human tumor cell lines and normal endothelial cells; type: cell-based; settings: newly synthesized compounds compared with compounds synthesized by the original method
From the text: Before conducting experiments with newly synthesized 3- and 4-F-GlcNAc the effects of 3- and 4-F-GlcNAc on the growth of a panel of human tumor cell lines as well as normal endothelial cells (i.e. IC50 values) were first determined and compared with the original growth inhibitory action (9 Bernacki, R. J. et al. (1977) J. Supra. Stru., 7:235–250; 10 Sharma, M. and W. Korytnyk (1980) Carbohyd. Res., 79:39–51;11 Sharma, M. et al. (1990). Carbohyd. Res., 198:205–22).

human CLA+ T-cells = experiment: Growth inhibition of human CLA+ T-cell cultures (Trypan-blue exclusion); type: cell-based
Method: To determine a suitable concentration of 4-F-GlcNAc for examining glycoconjugate-modifying effects without influencing cell growth or protein synthesis, we performed preliminary growth inhibitory experiments of cells incubated with 4-F-GlcNAc for 2 cell doublings (˜36 h) at 37° C. (cell viability assessed by Trypan-blue exclusion).

[2] = tested on: HECA-452 epitopes on human hematopoietic KG1a cells; experiment: Flow cytometric analysis of HECA-452 epitopes on KG1a cells; type: cell-based
From the text: (§1) In a similar set of experiments, we analyzed the effects of 4-F-GlcNAc on selectin ligand expression and function on the human hematopoietic cell line KGla. KGla cells express a distinct HECA-452-reactive CD44 glycoform that functions as both an E- and L-selectin ligand (Dimitroff, C. J. et al. (2001) J. Cell Biol., 53: 1277–1286; Dimitroff, C. J. et al. (2000) Proc. Nat. Acad. Sci., 97(25):13841–46; Sackstein, R. and Dimitroff, C. J. (2000) Blood, 96: 2765–74.), otherwise known as HCELL, respectively. This specialized glycoform represents a major E-selectin and the primary L-selectin ligand on normal CD34+ HPCs and on leukemic cells, and, therefore, is also implicated in the BM homing aspects and growth-related activities of HPCs in vivo, respectively (Id.). We first performed flow cytometric analysis of HECA-452 antigen and CD44 on 4-F-GlcNAc-treated KGla cells. […] Only positive cells, which were those cells with fluorescence above background autofluorescence and fluorochrome-conjugated secondary Ab staining, were analyzed.
(§2) Flow cytometric analysis was performed on human leukocytes utilizing both direct and indirect immunofluorescence staining approaches. All cells utilized for these experiments were washed twice with cold PBS/2%FBS and suspended at 10^7/ml PBS/1% FBS. Primary antibodies, anti-CLA (HECA-452), -CD4, -CD8, CD43 (L60) and PSGL-1 (PL-2) along with the appropriate isotype-matched control antibodies were incubated with the cells for 30 min on ice. Following two washes with PBS/2%FBS, cells were resuspended in PBS/1%FBS and fluorochrome-conjugated secondary antibodies (2 μl) and incubated for 30 min on ice. Cells were washed twice with PBS/2%FBS, resuspended in PBS and flow cytometry was performed on a FACScan apparatus equipped with an argon laser tuned at 488 nm (Becton Dickinson).

[3] = tested on: CD44 on human hematopoietic KG1a cells; experiment: Flow cytometric analysis of CD44 on KG1a cells; type: cell-based
From the text: as §1, §2

[4] = Toxicity (body weight, white cell counts, tolerability) in DTH mice; type: in vivo, mouse
Method: Thus, in these studies, a maximal dose of 250 mg/kg as well as 100 and […] doses were used in order to make both toxic and efficacy assessments of fluorinated hexosamine analog anti-inflammatory effects. To induce delayed type hypersensitivity (DTH), C57BL6 mice were sensitized on their abdomen on days 0 and 1 with 25 μl of 0.5% 2,4-dinitrofluorobenzene (DNFB) (i.e. hapten) in a 4:1 solution of acetone to olive oil (vehicle). Negative control mice were sensitized with vehicle alone. Mice were then treated from days 0–6 with drug vehicle (0.9% saline), 50 mg/kg 4-F-GlcNAc, 100 mg/kg 4-F-GlcNAc, 250 mg/kg 4-F-GlcNAc or 250 mg/kg GlcNAc (negative sugar control). Hapten-induced inflammation was then promoted on day 6 by challenging the mice with 10 μl of 0.25% DNFB on both sides of the right ear and mice also received 10 μl of vehicle alone on both sides of the left ear as a negative inflammatory control. Ear swelling responses were measured 24 h later on day 7 and subtracted from baseline measurements that were recorded on day 6.

C57BL/6 mice = experiment: Langerhans cell migration to draining lymph nodes and FITC presentation in mice; type: in vivo, mouse; settings: 250 mg/kg/day, cumulative dose of 750 mg/kg, 4-day experiment
Method: Six to eight-week old C57BL/6 mice from Charles River Laboratories (Wilmington, Mass.) were housed in pathogen-free conditions in the animal facility at the Harvard Institutes of Medicine and utilized in these experiments. For analysis of LC migration to draining lymph nodes and antigenic presentation by dendritic cells (DC), right ears of mice were painted with 25 μl of 0.5% FITC, a contact sensitizing agent dissolved in acetone-dibutyl phthalate vehicle (1:1 v/v), while left ears were painted with 25 μl of vehicle alone. After 30 h, regional auricular/cervical lymph nodes draining right or left ears, respectively, were isolated and single cell suspensions were prepared. To enrich for DC, cell suspensions were subjected to Optiprep™ (Accurate Chemicals, Westbury, N.Y.) discontinuous gradient centrifugation. […] Positive cells stained with PE-anti-CD11c were gated and analyzed for FITC expression. […]
Following a 30 h incubation, CD11c-positive LC isolated from the draining lymph nodes were analyzed for FITC expression by flow cytometry.

[5] = KG1a neuraminidase then recovery in 0.05 mM
[6] = KG1a neuraminidase then recovery in 0.1 mM
[7] = KG1a neuraminidase then recovery in 0.5 mM

## CC(=O)N[C@H]1C(OC(C)=O)O[C@H](COC(C)=O)[C@@H](F)[C@@H]1OC(C)=O (stereo partly drawn) [4-F-GlcNAc, 2-acetamido-2-deoxy-1,3,6-tri-O-acetyl-4-deoxy-4-fluoro-D-glucopyranose]
[1]
  IC50 values, growth of tumor cell lines and normal endothelial cells: identical to those that were previously described
Human CLA+ T-cells; 2 cell doublings (~36 h) at 37° C., Trypan-blue exclusion
  IC10 value (growth inhibition): > 200 µM
Human CLA+ T-cells; treated for 36 hr at concentrations less than 0.5 mM
  growth inhibitory effects on CLA+ T-cell cultures: no inhibition of growth
[2]; 0.05, 0.1 or 0.5 mM after neuraminidase
  de novo re-expression of the HECA-452 epitopes on KG1a cells: inhibited in a concentration-dependent manner
[2]; [5]
  HECA-452 Mean Channel Fluorescence: 112
[2]; [6]
  HECA-452 Mean Channel Fluorescence: 108
[2]; [7]
  HECA-452 Mean Channel Fluorescence: 43
[3]; [5]
  CD44 % Positive Cell Staining: 100%
[3]; [6]
  CD44 % Positive Cell Staining: 100%
[3]; [7]
  CD44 % Positive Cell Staining: 100%
[3]; even at 0.5 mM
  expression of CD44 on KG1a cells: no reduction
[4]; 50 mg/kg, days 0–6
  WBC counts: did not affect
  mouse body weight: did not affect
[4]; 250 mg/kg, days 0–6
  reduction in body weight: ~5%
  total white cell counts: 60 % of drug controls
[4]; 250 mg/kg/d×6
  tolerability: therapy-limiting
[4]; 100 and 50 mg/kg/d×6 days
  tolerability: well-tolerated
C57BL/6 mice
  weight gain: did not show similar weight gain
